Experiment [1] concerns pain threshold in the mouse hot plate method [小鼠热板法痛阈]. The experiment is described as follows: Effect on pain threshold in the mouse hot plate method. In kind it is in vivo, Kunming mouse, female. The settings on record: IV, dose exceeding 80mg/kg. Background: In hot-plate and tail-flick tests a longer latency is read as antinociception.
The subject of experiment [2] is carrageenan-induced rise of body temperature in rats [大鼠角叉菜胶诱导的体温升高]. The experiment is described as follows: Effect on carrageenan-induced rise of body temperature in rats. The class given is in vivo, SD rat. The settings on record: rat, IV.
The conditions of experiment [3]: background art; cited from earlier work.

With `CC(C)Cc1ccc([C@H](C)C(=O)O)cc1` [右旋布洛芬], the “analgesic effect above the best dose range” value in experiment [1] is given as “镇痛效果反而减弱”. Further, in experiment [2] (carrageenan-induced rise of body temperature), the “dose range with the best, dose-dependent effect” value was 7.5~30 mg/kg. Moreover, the “temperature-lowering effect above the best dose range” value in experiment [2] (dose exceeding 40mg/kg) is listed as “降温效果反而减弱”. In experiment [3], the “pharmacological activity relative to levorotatory ibuprofen” value is reported as 160 fold and the “pharmacological activity relative to racemate” value was 1.6 fold.

Consider `CC(C)Cc1ccc([C@@H](C)C(=O)O)cc1` [左旋布洛芬], for which, in experiment [3], the pharmacological activity entry was “非活性成分”.
